DC50 and Dmax data for 14 molecules are collected here from US20260184710A1, “CASITAS B-LINEAGE LYMPHOMA PROTOONCOGENE B (CBL-B) DEGRADING COMPOUNDS AND ASSOCIATED METHODS OF USE” (Arvinas Operations, Inc., priority 2022, published 2026).

The Dmax is the greatest extent of degradation seen.

The assay deals with T1, Cbl-b (Homo sapiens, UniProt Q13191).
T1 construct: Cbl-b-HiBit KI Jurkat Cells were purchased from Promega; host or cells: Cbl-b-HiBiT knock-in Jurkat cells
Briefly: Cbl-b Degradation Method B (Nano-Glo HiBiT lytic detection). The settings on record: Cbl-b-HiBit KI Jurkat Cells, incubated at least 6-24 hours; for DC50: half maximal degradation, read-out: Cbl-b Degredation Method B IC50; for Dmax: maximum degradation observed, read-out: Cbl-b Degredation Method B Dmax (%). The assay is classed as cell-based. The procedure, abridged: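 An 11-point, 3-fold compound dilution was applied for 6-24 hours to Jurkat cells carrying HiBiT-tagged endogenous Cbl-b. Lytic HiBiT luminescence quantified residual protein. Outputs are DC50 and Dmax relative to DMSO control.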

T1 sequence (Q13191 whole entry): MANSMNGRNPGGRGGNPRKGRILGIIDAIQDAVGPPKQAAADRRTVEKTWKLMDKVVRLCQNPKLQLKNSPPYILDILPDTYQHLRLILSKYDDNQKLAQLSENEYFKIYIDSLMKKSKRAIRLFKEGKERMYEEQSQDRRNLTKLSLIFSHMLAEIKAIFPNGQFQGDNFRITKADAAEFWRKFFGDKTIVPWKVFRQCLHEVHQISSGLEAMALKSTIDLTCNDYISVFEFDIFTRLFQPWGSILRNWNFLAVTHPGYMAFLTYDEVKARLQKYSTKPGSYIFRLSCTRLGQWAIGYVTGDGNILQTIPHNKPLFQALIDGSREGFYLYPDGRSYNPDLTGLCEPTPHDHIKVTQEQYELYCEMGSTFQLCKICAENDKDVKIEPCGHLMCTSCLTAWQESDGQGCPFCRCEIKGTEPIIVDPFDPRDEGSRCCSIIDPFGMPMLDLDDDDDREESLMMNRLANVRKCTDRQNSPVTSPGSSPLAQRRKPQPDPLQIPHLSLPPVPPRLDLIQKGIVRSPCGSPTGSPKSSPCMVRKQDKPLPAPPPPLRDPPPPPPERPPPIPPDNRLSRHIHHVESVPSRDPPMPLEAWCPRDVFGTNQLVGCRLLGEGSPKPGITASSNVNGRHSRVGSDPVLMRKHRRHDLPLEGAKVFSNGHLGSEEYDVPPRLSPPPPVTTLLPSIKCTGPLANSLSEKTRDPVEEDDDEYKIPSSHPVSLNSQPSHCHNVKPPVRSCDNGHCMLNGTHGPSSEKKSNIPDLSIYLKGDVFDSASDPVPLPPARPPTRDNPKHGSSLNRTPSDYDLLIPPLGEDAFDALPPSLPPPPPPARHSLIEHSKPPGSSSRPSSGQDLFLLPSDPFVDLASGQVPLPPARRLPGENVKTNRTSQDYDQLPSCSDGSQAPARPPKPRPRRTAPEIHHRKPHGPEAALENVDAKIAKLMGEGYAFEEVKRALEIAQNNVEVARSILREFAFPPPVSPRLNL

For the molecule `CC1c2nc(N3CCC(O[C@H]4CC[C@H](CN5CCN(Cc6cc7c(c(C(F)(F)F)c6)CN(c6cccc(C8(Cc9nncn9C)COC8)c6)C7=O)C(C)(C)C5)CC4)CC3)ccc2C(=O)N1C1CCC(=O)NC1=O` (relative stereo) [Example 246, rel-3-[7-methyl-5-oxo-2-(4-{[(1r,4r)-4-[(3,3-dimethyl-4-{[2-(3-{3-[(4-methyl-4H-1,2,4-triazol-3-yl)methyl]oxetan-3-yl}phenyl)-3-oxo-7-(trifluoromethyl)-2,3-dihydro-1H-isoindol-5-yl]methyl}piperazin-1-yl)methyl]cyclohexyl]oxy}piperidin-1-yl)-5H,6H,7H-pyrrolo[3,4-b]pyridin-6-yl]piperidine-2,6-dione], the DC50 is under 0.005 µM and the Dmax is 35 to 70%.
Turning to `CC(C)n1c(=O)n(C2CCC(=O)NC2=O)c2ccc(N3CCC(CN4CCN(C[C@H]5CCCN(Cc6cc7c(c(C(F)(F)F)c6)CN(c6cccc(C8(Cc9nncn9C)CC(C#N)C8)c6)C7=O)C5)C(C)(C)C4)CC3)cc21` (stereo partly drawn) [Example 273, (1r*,3r*)-3-[3-(6-{[(3S)-3-{[4-({1-[1-(2,6-dioxopiperidin-3-yl)-2-oxo-3-(propan-2-yl)-2,3-dihydro-1H-1,3-benzodiazol-5-yl]piperidin-4-yl}methyl)-2,2-dimethylpiperazin-1-yl]methyl}piperidin-1-yl]methyl}-1-oxo-4-(trifluoromethyl)-2,3-dihydro-1H-isoindol-2-yl)phenyl]-3-[(4-methyl-4H-1,2,4-triazol-3-yl)methyl]cyclobutane-1-carbonitrile], the DC50 was under 0.005 µM.
On the same count and under the same terms, for `Cn1cnnc1CC1(c2cccc(N3Cc4c(cc(CN5CCN(c6ccc(C(=O)NC7CCC(=O)NC7=O)c(F)c6)CC5)cc4C(F)(F)F)C3=O)c2)COC1` (stereo not drawn) [Example 35, N-(2,6-dioxopiperidin-3-yl)-2-fluoro-4-(4-{[2-(3-{3-[(4-methyl-4H-1,2,4-triazol-3-yl)methyl]oxetan-3-yl}phenyl)-3-oxo-7-(trifluoromethyl)-2,3-dihydro-1H-isoindol-5-yl]methyl}piperazin-1-yl)benzamide] the value was over 0.5 µM; for `Cn1cnnc1CC1(c2cccc(N3Cc4c(cc(CN5CCN(CCCOc6ccc7c(c6)C(=O)N(C6CCC(=O)NC6=O)C7=O)CC5)cc4C(F)(F)F)C3=O)c2)COC1` (stereo not drawn) [Example 47, 2-(2,6-dioxopiperidin-3-yl)-5-[3-(4-{[2-(3-{3-[(4-methyl-4H-1,2,4-triazol-3-yl)methyl]oxetan-3-yl}phenyl)-3-oxo-7-(trifluoromethyl)-2,3-dihydro-1H-isoindol-5-yl]methyl}piperazin-1-yl)propoxy]-2,3-dihydro-1H-isoindole-1,3-dione], over 0.5 µM; for `COc1ccc(C(=O)N2CCC(CN3CCN(Cc4cc5c(c(C(F)(F)F)c4)CN(c4cccc(C6(Cc7nncn7C)COC6)c4)C5=O)CC3)CC2)cc1N1CCC(=O)NC1=O` [Example 53, 1-(2-methoxy-5-{4-[(4-{[2-(3-{3-[(4-methyl-4H-1,2,4-triazol-3-yl)methyl]oxetan-3-yl}phenyl)-3-oxo-7-(trifluoromethyl)-2,3-dihydro-1H-isoindol-5-yl]methyl}piperazin-1-yl)methyl]piperidine-1-carbonyl}phenyl)-1,3-diazinane-2,4-dione], over 0.5 µM.
Still for that read-out and setting: in the case of `Cn1cnnc1CC1(c2cccc(N3Cc4c(cc(CN5CCC(CN6CCN(c7ccc8c(c7)C(=O)N(C7CCC(=O)NC7=O)C8=O)CC6)C5)cc4C(F)(F)F)C3=O)c2)COC1` (stereo not drawn) [Example 80, 2-(2,6-dioxopiperidin-3-yl)-5-{4-[(1-{[2-(3-{3-[(4-methyl-4H-1,2,4-triazol-3-yl)methyl]oxetan-3-yl}phenyl)-3-oxo-7-(trifluoromethyl)-2,3-dihydro-1H-isoindol-5-yl]methyl}pyrrolidin-3-yl)methyl]piperazin-1-yl}-2,3-dihydro-1H-isoindole-1,3-dione] it was over 0.5 µM.
Turning to `Cc1cc(N2CCC(O[C@H]3CC[C@@H](CN4CCN(C[C@H]5CCCN(Cc6cc7c(c(C(F)(F)F)c6)CN(c6cccc(C8(Cc9nncn9C)COC8)c6)C7=O)C5)C(C)(C)C4)CC3)CC2)c(F)c2c1C(=O)N(C1CCC(=O)NC1=O)C2` (stereo partly drawn) [Example 269, 3-[4-fluoro-7-methyl-1-oxo-5-(4-{[(1r,4r)-4-[(3,3-dimethyl-4-{[(3S)-1-{[2-(3-{3-[(4-methyl-4H-1,2,4-triazol-3-yl)methyl]oxetan-3-yl}phenyl)-3-oxo-7-(trifluoromethyl)-2,3-dihydro-1H-isoindol-5-yl]methyl}piperidin-3-yl]methyl}piperazin-1-yl)methyl]cyclohexyl]oxy}piperidin-1-yl)-2,3-dihydro-1H-isoindol-2-yl]piperidine-2,6-dione], the DC50 is under 0.005 µM and the Dmax is over 70%.
Take `Cn1cnnc1CC1(c2cccc(N3Cc4c(cc(CN5CCC(C(C)(C)N6CCN(c7ccc8c(c7)C(=O)N(C7CCC(=O)NC7=O)C8=O)CC6)CC5)cc4C(F)(F)F)C3=O)c2)COC1` (stereo not drawn) [Example 59, 2-(2,6-dioxopiperidin-3-yl)-5-{4-[2-(1-{[2-(3-{3-[(4-methyl-4H-1,2,4-triazol-3-yl)methyl]oxetan-3-yl}phenyl)-3-oxo-7-(trifluoromethyl)-2,3-dihydro-1H-isoindol-5-yl]methyl}piperidin-4-yl)propan-2-yl]piperazin-1-yl}-2,3-dihydro-1H-isoindole-1,3-dione]: the DC50 was over 0.5 µM.
Take `Cn1cnnc1CC1(c2cccc(N3Cc4c(cc(CN5CCC6(CC5)CCN(CC5CCN(c7ccc8c(c7)C(=O)N(C7CCC(=O)NC7=O)C8=O)CC5)CC6)cc4C(F)(F)F)C3=O)c2)COC1` (stereo not drawn) [Example 45, 2-(2,6-dioxopiperidin-3-yl)-5-{4-[(9-{[2-(3-{3-[(4-methyl-4H-1,2,4-triazol-3-yl)methyl]oxetan-3-yl}phenyl)-3-oxo-7-(trifluoromethyl)-2,3-dihydro-1H-isoindol-5-yl]methyl}-3,9-diazaspiro[5.5]undecan-3-yl)methyl]piperidin-1-yl}-2,3-dihydro-1H-isoindole-1,3-dione]: the DC50 is over 0.5 µM.
Consider `Cn1cnnc1C[C@]1(c2cccc(N3Cc4c(cc(CN5CCN(C[C@H]6CC[C@H](OC7CCN(c8ccc(C9CCC(=O)NC9=O)nc8)CC7)CC6)CC5)cc4C(F)(F)F)C3=O)c2)C[C@H](C#N)C1` (stereo partly drawn) [Example 213, (1r,3r)-3-[(4-methyl-4H-1,2,4-triazol-3-yl)methyl]-3-(3-{1-oxo-6-[(4-{[(1r,4r)-4-({1-[6-(2,6-dioxopiperidin-3-yl)pyridin-3-yl]piperidin-4-yl}oxy)cyclohexyl]methyl}piperazin-1-yl)methyl]-4-(trifluoromethyl)-2,3-dihydro-1H-isoindol-2-yl}phenyl)cyclobutane-1-carbonitrile], for which the DC50 was over 0.5 µM.
In the case of `Cn1cnnc1CC1(c2cccc(N3Cc4c(cc(CN[C@H]5CC[C@H](N6CCN(c7ccc8c(c7)C(=O)N(C7CCC(=O)NC7=O)C8=O)CC6)CC5)cc4C(F)(F)F)C3=O)c2)COC1` (stereo partly drawn) [Example 43, 2-(2,6-dioxopiperidin-3-yl)-5-{4-[(1r,4r)-4-({[2-(3-{3-[(4-methyl-4H-1,2,4-triazol-3-yl)methyl]oxetan-3-yl}phenyl)-3-oxo-7-(trifluoromethyl)-2,3-dihydro-1H-isoindol-5-yl]methyl}amino)cyclohexyl]piperazin-1-yl}-2,3-dihydro-1H-isoindole-1,3-dione], the DC50 fell in the range of 0.005 to 0.05 µM and the Dmax is under 35%.
Taken in the same sequence, the figures for `Cn1cnnc1CC1(c2cccc(N3Cc4c(cc(CN5CCN(C[C@H]6CC[C@H](OC7CCN(c8ccc9c(c8F)CN(C8CCC(=O)NC8=O)C9=O)CC7)CC6)CC5(C)C)cc4C(F)(F)F)C3=O)c2)CC(C#N)C1` (stereo partly drawn) [Example 254, (1r**,3r**)-3-(3-{6-[(2,2-dimethyl-4-{[(1r*,4r*)-4-({1-[2-(2,6-dioxopiperidin-3-yl)-4-fluoro-1-oxo-2,3-dihydro-1H-isoindol-5-yl]piperidin-4-yl}oxy)cyclohexyl]methyl}piperazin-1-yl)methyl]-1-oxo-4-(trifluoromethyl)-2,3-dihydro-1H-isoindol-2-yl}phenyl)-3-[(4-methyl-4H-1,2,4-triazol-3-yl)methyl]cyclobutane-1-carbonitrile] were 0.005 to 0.05 µM and over 70%.
Take `Cn1cnnc1CC1(c2cccc(N3Cc4c(cc(CN5CCN(CCN(C)[C@H]6C[C@H](Oc7ccc8c(c7)C(=O)N(C7CCC(=O)NC7=O)C8=O)C6)CC5)cc4C(F)(F)F)C3=O)c2)COC1` (stereo partly drawn) [Example 63, 2-(2,6-dioxopiperidin-3-yl)-5-[(1r,3r)-3-{methyl[2-(4-{[2-(3-{3-[(4-methyl-4H-1,2,4-triazol-3-yl)methyl]oxetan-3-yl}phenyl)-3-oxo-7-(trifluoromethyl)-2,3-dihydro-1H-isoindol-5-yl]methyl}piperazin-1-yl)ethyl]amino}cyclobutoxy]-2,3-dihydro-1H-isoindole-1,3-dione]: the DC50 was over 0.5 µM.
On the same count and under the same terms, for `CC1c2nc(N3CCC(O[C@H]4CC[C@H](CN5CCN(Cc6cc(C(F)(F)F)c7c(n6)C(=O)N(c6cccc(C8(Cc9nncn9C)COC8)c6)C7)CC5)CC4)CC3)ccc2C(=O)N1C1CCC(=O)NC1=O` (stereo partly drawn) [Example 282, 3-[7-methyl-2-[4-[4-[[4-[[6-[3-[3-[(4-methyl-1,2,4-triazol-3-yl)methyl]oxetan-3-yl]phenyl]-7-oxo-4-(trifluoromethyl)-5H-pyrrolo[3,4-b]pyridin-2-yl]methyl]piperazin-1-yl]methyl]cyclohexoxy]-1-piperidyl]-5-oxo-7Hpyrrolo[3,4-b]pyridin-6-yl]piperidine-2,6-dione] the value was over 0.5 µM.
